These results are taken from US9234176B2, “Chemically defined production of cardiomyocytes from pluripotent stem cells” (The Board of Trustees of the Leland Stanford Junior …, priority 2012, dated 2016).

For the assay, the system named is hiPSC. Put plainly: Defined matrices: pluripotent growth and cardiac differentiation of hiPSC. Type of assay: cell-based, human. The text has this:
Determination that Laminin-Based Matrices are Most Suitable for Cardiac Differentiation. […] This lack of long-term adhesion during the differentiation was present irrelevant of vitronectin peptide concentrations and could be resolved by passaging and replating onto new matrix, yet we sought to find a more suitable solution. We assessed culture of hiPSC in E8 medium and subsequent differentiation on other defined matrices: recombinant human (rH) Ecadherin, rH vitronectin, rH laminin-521, truncated rH laminin-511, human fibronectin, or a fibronectin mimetic (FIG. 2a). Chemically defined long-term maintenance of pluripotency in E8 was successful on all surfaces except those based on fibronectin. […] Cells cultured on each of the five successful matrices (>6 passages) were then differentiated in CDM3. Although all matrices produced efficient differentiations (FIG. 2b), the laminin matrices were both successful for maintaining long-term adhesion during chemically defined cardiac differentiation (FIG. 2d), but prohibitively expensive for large-scale application. […]
Growth assays. To assess cell growth, cells were counted using a Countess automated cell counter (Life Technologies). […] Cumulative population doublings was calculated using the formula n=3.32 [log10(N/N0)].
Matrices. […] Matrices were assessed on both 6-well polystyrene tissue culture plates and untreated plates (both from Greiner). […]

Regarding “recombinant laminin-521: recombinant human laminin-521 matrix”, the “support of pluripotent hiPSC growth and long-term adherence of CMs” value is reported as “most successful”.
